Assay results: US9006143B2, “Synergistic fungicidal active substance combinations” (Bayer Intellectual Property GmbH, priority 2003, dated 2015)
Read-outs that look alike come from different tables or passages of the source.

How the values were obtained:
[1] = test system: Erysiphe graminis f.sp. hordei; test: Erysiphe test (barley)/protective; type: in vivo; conditions: single active compound, application rate 12.5 g/ha, protective, evaluation 6 days after inoculation
Gibberella zeae = type: in vivo; conditions: single active compound, application rate 62.5 g/ha; barley, curative, evaluation 6 days after inoculation
Sphaerotheca fuliginea [2] = test: Sphaerotheca fuliginea test (cucumber)/protective; type: in vivo; conditions: protective, 7 days after inoculation; for pest or weed control at 2 g/ha: application rate 2 g/ha
Alternaria solani = Alternaria solani test (tomato)/protective; type: in vivo; conditions: protective, 3 days after inoculation
Phytophthora infestans = type: in vivo; conditions: tomato, protective, 3 days after inoculation
Alternaria mali = Alternaria mali test (in vitro)/microtitre plates; type: cell-based; conditions: microtitre plates, 5 days of incubation
Septoria tritici = Septoria tritici test (in vitro)/microtitre plates; type: cell-based; conditions: single active compound, application rate 0.01 ppm, microtitre plates, 7 days of incubation
Text: For inoculation, a spore suspension of Septoria tritici is used.

Sphaerotheca fuliginea [3] = test: Sphaerotheca fuliginea test (gherkin)/protective; type: in vivo; conditions: protective, 21 days after inoculation, application rate 8 ppm
Puccinia recondita = test: Puccinia test (wheat)/curative; conditions: single active compound, application rate 62.5 g/ha, curative, evaluation 8 days after inoculation
Experimental: Puccinia Test (Wheat)/Curative
To test for curative activity, young plants are sprayed with a conidia suspension of Puccinia recondita. The plants remain in an incubation cabinet at 20° C. and 100% relative atmospheric humidity for 48 hours.
The plants are placed in a greenhouse at a temperature of about 20° C. and a relative atmospheric humidity of about 80% to promote the development of rust pustules.
Evaluation is carried out 8 days after the inoculation.

Botrytis cinerea = Botrytis cinerea test (bean)/protective; conditions: single active compound, application rate 5 g/ha, protective, evaluation 2 days after inoculation
Experimental: After the spray coating has dried on, 2 small pieces of agar colonized by Botrytis cinerea are placed onto each leaf. The inoculated plants are placed in a darkened chamber at about 20° C. and 100% relative atmospheric humidity.
The size of the infected areas on the leaves is evaluated 2 days after the inoculation.

Pyrenophora teres = Pyrenophora teres test (barley)/curative; conditions: single active compound, application rate 25 g/ha, curative, evaluation 12 days after inoculation
Experimental: Pyrenophora teres Test (Barley)/Curative
To test for curative activity, young plants are sprayed with a conidia suspension of Pyrenophora teres. The plants remain in an incubation cabinet at 20° C. and 100% relative atmospheric humidity for 48 hours.
The plants are placed in a greenhouse at a temperature of about 20° C. and a relative atmospheric humidity of about 80%.
Evaluation is carried out 12 days after the inoculation.

Rhizoctonia solani = Rhizoctonia solani test (in vitro)/microtitre plates; conditions: microtitre plates, 5 days of incubation
Experimental: Rhizoctonia solani Test (in vitro)/Microtitre Plates
The microtest is carried out in microtitre plates using potato dextrose broth (PDB) as liquid test medium.
For inoculation, a mycelium suspension of Rhizoctonia solani is used. After 5 days of incubation in the dark and with shaking (10 Hz), for each filled cavity of the microtitre plates, the light transmittance is determined with the aid of a spectrophotometer.

[4] = Podosphaera fuliginea, 168 h, application rate 0.5 g/ha, read-out: Efficacy in % found
[5] = Podosphaera fuliginea, 168 h, application rate 1 g/ha, read-out: Efficacy in % found
[6] = Podosphaera fuliginea, 168 h, read-out: Efficacy in % found
[7] = Podosphaera fuliginea, 168 h, application rate 20 g/ha, read-out: Efficacy in % found

Cn1cc(C(=O)Nc2ccc(F)cc2-c2ccc(Cl)c(Cl)c2)c(C(F)F)n1 [(1-1), N-(3′,4′-dichloro-5-fluoro-1,1′-biphenyl-2-yl)-3-(difluoromethyl)-1-methyl-1H-pyrazole-4-carboxamide]
Efficacy in % found [1]: 0%
Efficacy in % found (Gibberella zeae): 40%
pest or weed control at 0.5 g/ha (Sphaerotheca fuliginea [2]; [4]): 0%
pest or weed control at 1 g/ha (Sphaerotheca fuliginea [2]; [5]): 16%
pest or weed control at 2 g/ha (Sphaerotheca fuliginea [2]; [6]): 36%
pest or weed control at 4 g/ha (Sphaerotheca fuliginea [2]; Podosphaera fuliginea, 168 h, application rate 4 g/ha, read-out: Efficacy in % found): 30%
Efficacy in % found (Alternaria solani; application rate 0.5 g/ha): 42%
Efficacy in % found (Alternaria solani; application rate 1 g/ha): 61%
Efficacy in % found (Phytophthora infestans; application rate 0.5 g/ha): 0%
Efficacy in % found (Phytophthora infestans; application rate 1 g/ha): 0%
Efficacy in % found (Phytophthora infestans; application rate 5 g/ha): 0%
Efficacy in % found (Phytophthora infestans; application rate 10 g/ha): 0%
Efficacy in % found (Alternaria mali; 0.003 ppm): 25%
Efficacy in % found (Alternaria mali; 0.03 ppm): 51%
Efficacy in % found (Septoria tritici): 15%
Efficacy in % found (Sphaerotheca fuliginea [3]): 60%
Efficacy in % found (Puccinia recondita): 22%
Efficacy in % found (Botrytis cinerea): 54%
Efficacy in % found (Pyrenophora teres): 43%
Efficacy in % found (Rhizoctonia solani; 0.1 ppm): 40%
Efficacy in % found (Rhizoctonia solani; 0.3 ppm): 80%

Cc1nc(C(F)F)c(C(=O)Nc2ccccc2-c2ccc(Br)cc2)s1 [(1-7), N-(4′-bromo-1,1′-biphenyl-2-yl)-4-(difluoromethyl)-2-methyl-1,3-thiazole-5-carboxamide]
pest or weed control at 0.5 g/ha (Sphaerotheca fuliginea [2]; [4]): 0%
pest or weed control at 1 g/ha (Sphaerotheca fuliginea [2]; [5]): 0%
pest or weed control at 2 g/ha (Sphaerotheca fuliginea [2]; [6]): 0%
Efficacy in % found (Alternaria solani; application rate 0.5 g/ha): 28%
Efficacy in % found (Alternaria solani; application rate 1 g/ha): 63%

CO/C=C(\C(=O)OC)c1ccccc1Oc1cc(Oc2ccccc2C#N)ncn1 [(2-1) azoxystrobin]
Efficacy in % found (Sphaerotheca fuliginea [2]; application rate 0.5 g/ha): 20%

CO/N=C(/C1=NOCCO1)c1ccccc1Oc1ncnc(Oc2ccccc2Cl)c1F [(2-2) fluoxastrobin, fluoxastrobin, reference compound]
pest or weed control at 1 g/ha (Sphaerotheca fuliginea [2]; [5]): 0%
Efficacy in % found (Pyrenophora teres): 0%

CNC(=O)/C(=N/OC)c1ccccc1Oc1ncnc(Oc2cccc(Cl)c2C)c1F [(2-3), (2E)-2-(2-{[6-(3-chloro-2-methylphenoxy)-5-fluoro-4-pyrimidinyl]oxy}phenyl)-2-(methoxyimino)-N-methylethanamide, reference compound]
Efficacy in % found (Alternaria solani; application rate 0.5 g/ha): 22%

CO/N=C(/C(=O)OC)c1ccccc1CO/N=C(\C)c1cccc(C(F)(F)F)c1 [(2-4) trifloxystrobin, trifloxystrobin, reference compound]
Efficacy in % found [1]: 78%
pest or weed control at 2 g/ha (Sphaerotheca fuliginea [2]; [6]): 10%

CO/C=C(/C(=O)OC)c1ccccc1COc1cccc(C(F)(F)F)n1 [(2-11) picoxystrobin, picoxystrobin]
Efficacy in % found (Puccinia recondita): 78%

COC(=O)N(OC)c1ccccc1COc1ccn(-c2ccc(Cl)cc2)n1 [(2-12) pyraclostrobin, pyraclostrobin, reference compound]
Efficacy in % found (Gibberella zeae): 80%
pest or weed control at 2 g/ha (Sphaerotheca fuliginea [2]; [6]): 0%

CCCC1COC(Cn2cncn2)(c2ccc(Cl)cc2Cl)O1 (centres unmarked) [(3-3) propiconazole]
Efficacy in % found (Alternaria solani; application rate 0.5 g/ha): 3%

Fc1ccc(C2(Cn3cncn3)OC2c2ccccc2Cl)cc1 (centres unmarked) [(3-12) epoxyconazole, epoxiconazole]
Efficacy in % found (Gibberella zeae): 0%

OC(Cc1ccccc1Cl)(Cn1ncnc1S)C1(Cl)CC1 (centres unmarked) [(3-15) prothioconazole, prothioconazole, reference compound]
Efficacy in % found [1]: 67%
pest or weed control at 1 g/ha (Sphaerotheca fuliginea [2]; [5]): 43%

CC(C)(C)C(O)(CCc1ccc(Cl)cc1)Cn1cncn1 (centres unmarked) [(3-17) tebuconazole, tebuconazole, reference compound]
pest or weed control at 1 g/ha (Sphaerotheca fuliginea [2]; [5]): 10%
Efficacy in % found (Pyrenophora teres): 29%

CC(C)(C)C(O)C(Oc1ccc(-c2ccccc2)cc1)n1cncn1 (centres unmarked) [(3-21) bitertanol]
Efficacy in % found (Sphaerotheca fuliginea [2]; application rate 1 g/ha): 0%

Cc1ccc(N(SC(F)(Cl)Cl)S(=O)(=O)N(C)C)cc1 [(4-2) tolylfluanid]
Efficacy in % found (Sphaerotheca fuliginea [2]; application rate 20 g/ha): 0%
Efficacy in % found (Phytophthora infestans; application rate 10 g/ha): 0%

Cc1ccc(C(C)NC(=O)[C@@H](NC(=O)OC(C)C)C(C)C)cc1 (some centres unmarked) [(5-1) iprovalicarb]
Efficacy in % found (Phytophthora infestans; application rate 5 g/ha): 61%
Efficacy in % found (Phytophthora infestans; application rate 10 g/ha): 64%

CC(C)OC(=O)N[C@H](C(=O)N[C@H](C)c1nc2ccc(F)cc2s1)C(C)C [(5-3) benthiavalicarb]
Efficacy in % found (Alternaria solani; application rate 1 g/ha): 5%
Efficacy in % found (Phytophthora infestans; application rate 0.5 g/ha): 56%

O=C(Nc1ccccc1-c1ccc(Cl)cc1)c1cccnc1Cl [(6-2) boscalid]
Efficacy in % found (Sphaerotheca fuliginea [3]): 50%

CC1(C(=O)Nc2ccc(O)c(Cl)c2Cl)CCCCC1 [(6-6) fenhexamid]
Efficacy in % found (Sphaerotheca fuliginea [2]; application rate 20 g/ha): 0%

N#Cc1ccccc1NC(=O)c1snc(Cl)c1Cl [(6-11), 3,4-dichloro-N-(2-cyanophenyl)isothiazole-5-carboxamide]
Efficacy in % found (Puccinia recondita): 0%

CC(C)CC(C)c1sccc1NC(=O)c1cn(C)nc1C(F)(F)F (centres unmarked) [(6-14) penthiopyrad]
Efficacy in % found (Sphaerotheca fuliginea [2]; application rate 4 g/ha): 0%

CC(C)CC(C)c1sccc1NC(=O)c1cn(C)nc1C(F)(F)F (centres unmarked) [(6-14), penthiopyrad]
Efficacy in % found (Puccinia recondita): 44%

COCC(=O)N(c1c(C)cccc1C)[C@H](C)C(=O)OC [(8-4) metalaxyl-M]
Efficacy in % found (Alternaria solani; application rate 0.5 g/ha): 7%

COC(=O)[C@@H](C)N(C(=O)Cc1ccccc1)c1c(C)cccc1C [(8-5) benalaxyl-M]
Efficacy in % found (Alternaria solani; application rate 0.5 g/ha): 14%

Cc1cc(C)nc(Nc2ccccc2)n1 [(9-3) pyrimethanil, pyrimethanil, reference compound]
pest or weed control at 20 g/ha (Sphaerotheca fuliginea [2]; [7]): 0%
Efficacy in % found (Botrytis cinerea): 4%

COC(=O)Nc1nc2ccccc2[nH]1 [(10-3) carbendazim]
Efficacy in % found (Alternaria mali; 0.03 ppm): 15%

CCCOC(=O)NCCCN(C)C [(11-2) propamocarb]
Efficacy in % found (Rhizoctonia solani; 0.1 ppm): 25%

CC(C)NC(=O)N1CC(=O)N(c2cc(Cl)cc(Cl)c2)C1=O [(12-4) iprodione, iprodione, reference compound]
pest or weed control at 20 g/ha (Sphaerotheca fuliginea [2]; [7]): 0%
Efficacy in % found (Botrytis cinerea): 13%

[O-][n+]1nc(-n2ccnc2)nc2ccc(Cl)cc21 [(14-3) triazoxide, triazoxide, reference compound]
Efficacy in % found (Septoria tritici): 29%

CCO[PH](=O)[O-].CCO[PH](=O)[O-].CCO[PH](=O)[O-].[Al+3] [(17-1) fosetyl-Al]
Efficacy in % found (Rhizoctonia solani; 0.3 ppm): 24%

N#Cc1c(Cl)c(Cl)c(Cl)c(C#N)c1Cl [(19-2) chlorothalonil]
Efficacy in % found (Sphaerotheca fuliginea [2]; application rate 20 g/ha): 0%

CSC1=N[C@@](C)(c2ccccc2)C(=O)N1Nc1ccccc1 [(19-3) fenamidone]
Efficacy in % found (Alternaria mali; 0.003 ppm): 2%

CCCN(CC)CC1COC2(CCC(C(C)(C)C)CC2)O1 (centres unmarked) [(19-10) spiroxamine, spiroxamine, reference compound]
pest or weed control at 20 g/ha (Sphaerotheca fuliginea [2]; [7]): 0%
Efficacy in % found (Puccinia recondita): 0%

CSC1=N[C@@](C)(c2ccccc2)C(=O)N1Nc1ccccc1 [(19-13) fenamidone]
Efficacy in % found (Phytophthora infestans; application rate 0.5 g/ha): 41%

O=C(Nc1ccccc1)N(Cc1ccc(Cl)cc1)C1CCCC1 [(20-1) pencycuron]
Efficacy in % found (Alternaria mali; 0.003 ppm): 11%

C[C@H](Nc1c(-c2c(F)cc(F)cc2F)c(Cl)nc2ncnn12)C(F)(F)F [(22-1), 5-chloro-N-[(1S)-2,2,2-trifluoro-1-methylethyl]-6-(2,4,6-trifluorophenyl)[1,2,4]triazolo-[1,5-a]pyrimidine-7-amine, reference compound]
pest or weed control at 2 g/ha (Sphaerotheca fuliginea [2]; [6]): 11%

CC(C)[C@@H](C)Nc1c(-c2c(F)cc(F)cc2F)c(Cl)nc2ncnn12 [(22-2), 5-chloro-N-[(1R)-1,2-dimethylpropyl]-6-(2,4,6-trifluorophenyl)[1,2,4]triazolo[1,5-a]-pyrimidine-7-amine, reference compound]
pest or weed control at 1 g/ha (Sphaerotheca fuliginea [2]; [5]): 22%
